Experimental data reported in patent US7855200B2, “Method for treatment of gastric ulcers and ulcers induced by aspirin” (Council of Scientific and Industrial Research, priority 2006, dated 2010).
Values joined by “and” are separate entries in the source; they are usually repeats but may differ in a detail not shown here. Equal entries are not always repeated.

Tests used:
Type in all cases: in vivo, albino rats
[1] = test system: gastric ulceration in cold restraint rats; assay: Cold restraint (stress) induced ulcers; design: Ulcer index Mean(SE): scale not given here; details: for inhibition at 25 mg/kg: po; for inhibition at 25 mg/kg / Ulcer index Mean(SE): rats, 4° C. for 2 hours
Excerpt: (§1) The compounds taken under study for antigastric ulcer screening by four different models were selected using experimental albino rats: • 1. Aspirin induced gastric ulceration • 2. Pylorus ligated gastric ulceration • 3. Ethanol induced gastric ulceration • 4. Stress induced gastric ulceration
(§2) The commercially available drug ranitidine (sigma), Omeprazole (sigma) and sucralfate (Merck) were used as reference standard in experimental models. The Tween-80 (SD fine chemicals) was used as vehicle for the administration of the drug, which is used as control.
(§3) The antiulcer activity of the compounds was studied. The animals were divided into 21 groups of 7 animals each. Group 1 received the vehicle Tween 80 (1%, 1 ml) which served as the control. Group 2 received ranitidine at a dose of 50-mg/kg body weight, which served as standard for comparison. Group 3 to 21 at a dose of 25 mg/kg body weight. Animals were deprived of food 48 hours before the experiment. The water was allowed for free access. Rats were administered per orally with compounds and the drug ranitidine. The water was removed 1 hour before restraint and exposed to a temperature of 4° C. for 2 hours. Two hours after stress, the animals were sacrificed. The stressed animals were opened along the greater curvature and the severity of gastric ulcer was assessed in terms of mean ulcer index. 2.
as §3, with “8” for “21”, “6” for “7”, “50, 25, 15, 10 and 5” for “25”, “weight respectively.” for “weight.”, “index.” for “index. 2.”

[2] = test system: ethanol induced gastric ulcers; assay: Ethanol induced ulcers; details: rats, ethanol challenge; for Acidity Total mEg / Gastric content / pH: 4 hours after pylorus ligation
Description: Stress induced gastric ulceration The commercially available drug ranitidine (sigma), Omeprazole (sigma) and sucralfate (Merck) were used as reference standard in experimental models. The Tween-80 (SD fine chemicals) was used as vehicle for the administration of the drug, which is used as control. The animals were divided into 22 groups of 6 animals each. Animals were deprived of food for 48 hours but had free access to water. Group 1 received the vehicle Tween 80 (1%, 1 ml) which served as the control. Group 2 received ranitidine at a dose of 50-mg/kg-body weight, which served as standard for comparison. Group 3 to received Omeprazole at a dose of 30-mg/kg body weight, which served as standard for comparison. Group 4 received sucralfate at a dose of 400-mg/kg body weight, which served as standard for comparison. Group 5 to 22 received at a dose of 25 mg/kg body weight. Lesions were induced 1 hour after ethanol challenge animals. The stomach was ligated at the pylorus under ether anesthesia. 4 hours after pylorus ligation, the animals were sacrificed and the contents drained and centrifuges at 5000 rpm for 10 minutes. Aliquots of supernatant were used for determination of total acid by titrating with 0.01N NaOH using topfers reagent and phenolphthalein indicators. […] The animals were divided into 9 groups of 6 animals each. Animals were deprived of food for 48 hours but had free access to water. Group 1 received the vehicle Tween 80 (1%, 1 ml) which served as the control. Group 2 received ranitidine at a dose of 50-mg/kg-body weight, which served as standard for comparison. Group 3 to received Omeprazole at a dose of 30-mg/kg body weight, which served as standard for comparison. Group 4 received sucralfate at a dose of 400-mg/kg body weight, which served as standard for comparison. […] Lesions were induced 1 hour after ethanol challenge animals. The stomach was ligated at the pylorus under ether anesthesia. 4 hours after pylorus ligation, the animals were sacrificed and the contents drained and centrifuges at 5000 rpm for 10 minutes. Aliquots of supernatant were used for determination of total acid by titrating with 0.01N NaOH using topfers reagent and phenolphthalein indicators.

[3] = test system: Pylorus ligated rats; assay: Pylorus ligated ulcers; details: 25 mg/kg, 4 hours after pylorus ligation; for inhibition at 25 mg/kg: Rattus norvegicus
Excerpt: as §1, §2
The animals were divided into 19 groups of 6 animals each. Animals were deprived of food for 48 hours but had free access to water. Group 1 received the vehicle Tween 80 (1%, 1 ml) which served as the control. Group 2 received ranitidine at a dose of 50-mg/kg-body weight, which served as standard for comparison. […] After one hour of administration of drug the stomach was ligated at the pylorus under ether anesthesia. 4 hours after pylorus ligation, the animals were sacrificed and the contents drained and centrifuges at 5000 rpm for 10 minutes. Aliquots of supernatant were used for determination of total acid by titrating with 0.01N NaOH using topfers reagent and phenolphthalein indicators. 4.
The animals were divided into 7 groups of 6 animals each. Animals were deprived of food for 48 hours but had free access to water. Group 1 received the vehicle Tween 80 (1%, 1 ml) which served as the control. Group 2 received ranitidine at a dose of 50-mg/kg-body weight, which served as standard for comparison. Group 3 to 7 received at a dose of 50, 25, 15, 10 and 5 mg/kg body weight respectively. After one hour of administration of drug the stomach was ligated at the pylorus under ether anesthesia. 4 hours after pylorus ligation, the animals were sacrificed and the contents drained and centrifuges at 5000 rpm for 10 minutes. Aliquots of supernatant were used for determination of total acid by titrating with 0.01N NaOH using topfers reagent and phenolphthalein indicators.

[4] = test system: acetyl salicylic acid induced gastric lesions; assay: Acetyl salicylic acid (aspirin) induced gastric ulcer; design: Ulcer index Mean(SE): scale not given here; details: rats, 25 mg/kg per orally daily for five days, aspirin 200 mg/kg; for inhibition at 25 mg/kg: Rattus norvegicus, po, 120 h
Description: Stress induced gastric ulceration The commercially available drug ranitidine (sigma), Omeprazole (sigma) and sucralfate (Merck) were used as reference standard in experimental models. The Tween-80 (SD fine chemicals) was used as vehicle for the administration of the drug, which is used as control. Antiulcer activity of the compounds under taken was studied. The animals were divided into 20 groups of 6 animals each. Group 1 received the vehicle Tween 80 (1%, 1 ml) which served as the control. Group 2 received ranitidine at a dose of 50-mg/kg body weight, which served as standard for comparison. Group 3 to 20 at a dose of 25 mg/kg body weight. Rats were administered per orally with a daily dose of the compounds and the drug ranitidine for a period of five days and then fasted for 24 hours. The […] acetyl salicylic acid (aspirin) at a dose of 200 mg/kg body weight was administered as a suspension in tween-80 (1%), 30 min after the drug administration each day. All drugs were administered orally on the 6th day after the last administration of the drugs and the ulcer inducing agent aspirin, the rats were killed by cervical dislocation and their stomach were opened along the greater curvature and washed with luke warm saline and examined under a dissecting microscope. The ulcer index was calculated for each stomach. […] The antiulcer activity of the compounds was studied. The animals were divided into 19 groups of 6 animals each. Group 1 received the vehicle Tween 80 (1%, 1 ml) which served as the control. Group 2 received ranitidine at a dose of 50-mg/kg-body weight, which served as standard for comparison. […] Rats were administered per orally with a daily dose of the compounds and the drug ranitidine to respective groups for a period of five days and then fasted for 24 hours. The […] acetyl salicylic acid (aspirin) at a dose of 200 mg/kg body weight was administered as a suspension in tween-80 (1%), 30 min after the drug administration each day. All drugs were administered orally on ht […] day after the last administration of the drugs and the ulcer inducing agent aspirin, the rats were killed by cervical dislocation and their stomach were opened along the greater curvature and washed with luke warm saline and examined under a dissecting microscope.

[5] = Rattus norvegicus, 25 mg/kg per orally

For `O=c1cc(-c2ccccc2)oc2cc(O)c(O)c(O)c12` [Baicalein, 5,6,7-trihydroxy-2-phenyl-chromen-4-one], the inhibition at 25 mg/kg [1, 5] was 3.52%, the “Ulcer index Mean(SE)” value ([1]; 25 mg/kg per orally) was 29.28 and the inhibition at 25 mg/kg ([2]; Rattus norvegicus, 25 mg/kg) was 20%. The “Ulcer index Mean(SE)” value ([2]; 25 mg/kg) was 43.33 (±3.33), the “Acidity Total mEg” value ([2]; 25 mg/kg) was 45.21 (±3.10) mEg and the Gastric content ([2]; 25 mg/kg) was 3.5 (±0.20). The pH ([2]; 25 mg/kg) was 3.33 (±0.10), the “Acidity Total mEg” value [3] was 49.21 (±2.20) m Eg and the Gastric content [3] was 2.00 (±0.22). The “Ulcer index Mean(SE)” value [3] was 40.66 (±5.50), the pH [3] was 3.01 (±0.30) and the inhibition at 25 mg/kg [3] was 18.9%. The inhibition at 25 mg/kg [4] was 9.51% and the “Ulcer index Mean(SE)” value [4] was 40.83.

With `O=c1cc(-c2ccccc2)oc2cc(OC3OC(CO)C(O)C(O)C3O)cc(O)c12` (stereo not shown) [CG, 5-Hydroxy-2-phenyl-7-(3,4,5-trihydroxy-6-hydroxymethyl-tetrahydro-pyran-2-yloxy)-chromen-4-one] the inhibition at 25 mg/kg [1, 5] was 47.7%, the “Ulcer index Mean(SE)” value ([1]; 25 mg/kg per orally) was 21.00 and the inhibition at 25 mg/kg ([2]; Rattus norvegicus, 25 mg/kg) was 52.5%. For the same compound, the “Ulcer index Mean(SE)” value ([2]; 25 mg/kg) was 31.66 (±4.41), the “Acidity Total mEg” value ([2]; 25 mg/kg) was 20.01 (±4.41) mEg and the Gastric content ([2]; 25 mg/kg) was 5.90 (±0.49). The pH ([2]; 25 mg/kg) was 5.90 (±0.49), the “Acidity Total mEg” value [3] was 44.33 (±2.33) m Eg and the Gastric content [3] was 1.50 (±0.28). The “Ulcer index Mean(SE)” value [3] was 24.93 (±1.66), the pH [3] was 3.50 (±0.28) and the inhibition at 25 mg/kg [3] was 50.2%. The inhibition at 25 mg/kg [4] was 52% and the “Ulcer index Mean(SE)” value [4] was 21.66.

For `O=c1cc(-c2ccccc2)oc2cc(OCCCN3CCOCC3)cc(O)c12` [CHM-2, 5-Hydroxy-7-(3-morpholin-4-yl-propoxy)-2-phenyl chromen-4-one], the inhibition at 25 mg/kg [1, 5] was 35.1%, the “Ulcer index Mean(SE)” value ([1]; 25 mg/kg per orally) was 26.42 and the inhibition at 25 mg/kg ([2]; Rattus norvegicus, 25 mg/kg) was 25%. The “Ulcer index Mean(SE)” value ([2]; 25 mg/kg) was 40.11 (±3.65), the “Acidity Total mEg” value ([2]; 25 mg/kg) was 38.28 (±2.24) mEg and the Gastric content ([2]; 25 mg/kg) was 2.8 (±0.72). For the same compound, the pH ([2]; 25 mg/kg) was 4.00 (±0.18), the “Acidity Total mEg” value [3] was 41.48 (±3.20) m Eg and the Gastric content [3] was 1.88 (±0.62). The “Ulcer index Mean(SE)” value [3] was 25.82 (±2.00), the pH [3] was 3.79 (±0.20) and the inhibition at 25 mg/kg [3] was 48.5%. The inhibition at 25 mg/kg [4] was 55.6% and the “Ulcer index Mean(SE)” value [4] was 19.99.

For `O=c1cc(-c2ccccc2)oc2cc(OCCCCN3CCOCC3)cc(O)c12` [CHM-3, 5-Hydroxy-7-(4-morpholin-4-yl-butoxy)-2-phenyl chromen-4-one], the inhibition at 25 mg/kg [1, 5] was 52.6%, the “Ulcer index Mean(SE)” value ([1]; 25 mg/kg per orally) was 19.28 and the inhibition at 25 mg/kg ([2]; Rattus norvegicus, 25 mg/kg) was 36.2%. The “Ulcer index Mean(SE)” value ([2]; 25 mg/kg) was 42.50 (±3.81), the “Acidity Total mEg” value ([2]; 25 mg/kg) was 37.10 (±0.60) mEg and the Gastric content ([2]; 25 mg/kg) was 3.8 (±0.30). For the same compound, the pH ([2]; 25 mg/kg) was 4.16 (±0.12), the “Acidity Total mEg” value [3] was 44.10 (±2.20) m Eg and the Gastric content [3] was 2.24 (±0.22). For the same compound, the “Ulcer index Mean(SE)” value [3] was 27.46 (±3.00), the pH [3] was 3.41 (±0.16) and the inhibition at 25 mg/kg [3] was 45.2%. The inhibition at 25 mg/kg [4] was 51.7% and the “Ulcer index Mean(SE)” value [4] was 21.77.

In the case of `CN1C(=O)CN=C(c2ccccc2)c2cc(Cl)ccc21` [Diazepam, reference compound], the inhibition at 1 mg/kg ([1]; Rattus norvegicus, 2 h) is reported as 75.4% and the “Ulcer index Mean(SE)” value ([1]; 1 mg/kg) is reported as 10.00.

`COc1ccc2[nH]c([S+]([O-])Cc3ncc(C)c(OC)c3C)nc2c1` (stereo not shown) [Omeprazole, reference compound] was tested, and the inhibition at 30 mg/kg ([2]; Rattus norvegicus, 30 mg/kg) was 67.5%, the “Ulcer index Mean(SE)” value ([2]; 30 mg/kg) was 23.33 (±2.21) and the Gastric content ([2]; 30 mg/kg) was 3.5 (±0.68). For the same compound, the pH ([2]; 30 mg/kg) was 4.65 (±0.19).

For sucralfate [reference compound], the Inhibition % ([2]; 400 mg/kg) was 87.50%, the “Ulcer index Mean(SE)” value ([2]; 400 mg/kg) was 08.33 (±2.23) and the “Acidity Total mEg” value ([2]; 400 mg/kg) was 58.00 (±2.30) mEg. The Gastric content ([2]; 400 mg/kg) was 3.01 (±0.48) and 3.0 (±0.48) and the pH ([2]; 400 mg/kg) was 3.00 (±0.19).
